Results published in patent publication US20260103471A1, “CYCLIC UREA THIAZOLYL COMPOUNDS FOR TREATMENT OF HSV” (Assembly Biosciences, Inc., priority 2022, published 2026).
pEC50: −log10 of the molar value.

System: HSV-2 G strain
Assay: HSV-2 Antiviral Assay (Vero cells, cell viability)
Assay type: cell-based
Conditions: Human alphaherpesvirus 2, Vero, 120 h, Vero cells, 160 TCID50 HSV-2 G strain, 5 days, cell viability
How it was run: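 Antiviral readout is survival of infected Vero cells: after 5 days at 37 °C with 160 TCID50 HSV-2 G strain plus serially diluted compound (8 points, 3-fold, 0.5% DMSO), WST-8 was added for 3 h and absorbance measured at 460/620 nm. Cells seeded at 1.0×10^4 per well.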

Structure (SMILES) | pEC50
Cc1nc(N2CCCN(c3ccc(-c4ccc(F)cc4)cc3)C2=O)sc1S(N)(=O)=O [Compound 189] | 6.00 to 7.00
Cc1nc(N2C[C@@H](C)CN(c3ccc(-c4ccccc4)cc3)C2=O)sc1S(N)(=O)=O (single isomer, unassigned) [Compound 328] | > 7.00
Cc1nc(N2CCCN(c3ccc(-c4cncs4)cc3)C2=O)sc1S(N)(=O)=O [Compound 49] | 6.00 to 7.00
Cc1cc(Cl)c(F)c(-c2ccc(N3CCCN(c4nc(C)c(S(N)(=O)=O)s4)C3=O)cc2)n1 [Compound 236] | > 7.00
Cc1nc(N2CCCN(c3ccc(-c4cc(F)cc5nc(C(F)(F)F)sc45)cc3)C2=O)sc1S(N)(=O)=O [Compound 257] | > 7.00
Cc1nc(N2CCCN(c3ccc(-c4cccn5cncc45)cc3)C2=O)sc1S(N)(=O)=O [Compound 65] | 6.00 to 7.00
NS(=O)(=O)c1sc(N2CCCN(c3ccc(-c4cc(F)cc5nsnc45)cc3)C2=O)nc1C(F)(F)F [Compound 438] | 5.30 to 6.00
COc1c(F)cc(F)cc1-c1ccc(N2C[C@@H](C(C)(C)O)CN(c3nc(C)c(S(N)(=O)=O)s3)C2=O)cc1 (single isomer, unassigned) [Compound 346] | 6.00 to 7.00
Cc1nc(N2CCCN(c3ccc(-n4cnc5ccccc54)cc3)C2=O)sc1S(N)(=O)=O [Compound 94] | 5.30 to 6.00
Cc1nc(N2CCCN(c3ccc(-c4cc(C(F)(F)F)cc5c4c(C#N)cn5C)cc3)C2=O)sc1S(N)(=O)=O [Compound 290] | 5.30 to 6.00
Cc1nc(N2CCCN(c3ccc(-c4cc(F)cc5nc(C6CC6)sc45)cc3)C2=O)sc1S(N)(=O)=O [Compound 253] | > 7.00
Cc1ncsc1-c1ccc(N2CCCN(c3nc(C)c(S(N)(=O)=O)s3)C2=O)cc1 [Compound 50] | 6.00 to 7.00
Cc1nc(N2CCCN(c3ccc(-c4cccc5ccnn45)cc3)C2=O)sc1S(N)(=O)=O [Compound 248] | > 7.00
Cc1nc(N2CCCN(c3ccc(-c4nccc5ncsc45)cc3)C2=O)sc1S(N)(=O)=O [Compound 260] | > 7.00
Cc1nc(N2CCCN(c3ccc(-c4ccccc4C4(C#N)CC4)cc3)C2=O)sc1S(N)(=O)=O [Compound 23] | 5.30 to 6.00
Cc1nc(N2CCCN(c3ccc(-c4cc(F)ccc4F)cc3)C2=O)sc1S(=O)(=O)Nc1ccc2cc[nH]c2c1 [Compound 407] | 6.00 to 7.00
Cc1nc(N2CCCN(c3ccc(-c4snc5c(F)cc(F)c(F)c45)cc3)C2=O)sc1S(N)(=O)=O [Compound 308] | 6.00 to 7.00

Structure (SMILES) | pEC50
Cc1nc(N2CCCN(c3ccc(-c4cc(Cl)cc(Cl)c4F)cc3)C2=O)sc1S(N)(=O)=O [Compound 213] | > 7.00
Cc1nc(N2CCCN(c3ccc(-c4cc(C(F)(F)F)cc5nn(C)cc45)cc3)C2=O)sc1S(N)(=O)=O [Compound 289] | 5.30 to 6.00
Cc1nc(N2CC(C)CN(c3ccc(-c4ccccc4)cc3)C2=O)sc1S(N)(=O)=O (centres unmarked) [Compound 326] | > 7.00
Cc1nc(N2CCCN(c3ccc(-c4nccc(Cl)c4F)cc3)C2=O)sc1S(N)(=O)=O [Compound 37] | 6.00 to 7.00
Cc1nc2cc(F)cc(-c3ccc(N4CCCN(c5nc(C)c(S(N)(=O)=O)s5)C4=O)cc3)c2s1 [Compound 256] | > 7.00
Cc1nc(N2C[C@H](C)CN(c3ccc(-c4ccccc4)cc3)C2=O)sc1S(N)(=O)=O (single isomer, unassigned) [Compound 327] | > 7.00
Cc1nc(N2CC3(COC3)CN(c3ccc(-c4cc(F)ccn4)cc3)C2=O)sc1S(N)(=O)=O [Compound 379] | > 7.00
COCCCCCCCCCCNS(=O)(=O)c1sc(N2CCCN(c3ccc(-c4cc(F)ccc4F)cc3)C2=O)nc1C [Compound 421] | > 7.00
Cc1nc(N2CCCN(c3ccc(-c4cccn5nncc45)cc3)C2=O)sc1S(N)(=O)=O [Compound 263] | 6.00 to 7.00
Cc1nc(N2CCCN(c3ccc(-c4cc(F)ccn4)cc3)C2=O)sc1S(=O)(=O)NC1CC1 [Compound 408] | > 7.00
Cc1nc(N2CCCN(c3ccc(-c4ccccc4OC4CC4)cc3)C2=O)sc1S(N)(=O)=O [Compound 200] | 6.00 to 7.00
Cc1nc(N2CCCN(c3ccc(-c4c(F)ccc5ncsc45)cc3)C2=O)sc1S(N)(=O)=O [Compound 70] | > 7.00
Cc1nc(N2CCCN(c3ccc(-c4snc5c(F)cc(F)cc45)cc3)C2=O)sc1S(N)(=O)=O [Compound 306] | > 7.00
Cc1nc(N2CCCN(c3ccc(-c4snc5c(F)ccc(F)c45)cc3)C2=O)sc1S(N)(=O)=O [Compound 307] | 6.00 to 7.00
Cc1nc(N2CCCN(c3ccc(-c4cccc5c(C)cnn45)cc3)C2=O)sc1S(N)(=O)=O [Compound 247] | > 7.00
COc1c(F)cc(F)cc1-c1ccc(N2C[C@@H](C(F)(F)F)CN(c3nc(C)c(S(N)(=O)=O)s3)C2=O)cc1 (single isomer, unassigned) [Compound 373] | > 7.00
COCCCNS(=O)(=O)c1sc(N2CCCN(c3ccc(-c4cc(F)cc5nsnc45)cc3)C2=O)nc1C [Compound 419] | > 7.00

Further lines, results first:

pEC50 | Structure (SMILES)
> 7.00 | Cc1nc(N2CCCN(c3ccc(-c4cc(F)ccc4C(C)(F)F)cc3)C2=O)sc1S(N)(=O)=O [Compound 225]
> 7.00 | Cc1nc(N2C[C@@H](F)CN(c3ccc(-c4cc(F)ccc4F)cc3)C2=O)sc1S(=O)(=O)NCCO (single isomer, unassigned) [Compound 415]
> 7.00 | COCCCNS(=O)(=O)c1sc(N2CCCN(c3ccc(-c4cc(F)ccc4F)cc3)C2=O)nc1C [Compound 416]
6.00 to 7.00 | Cc1nc(N2CCCN(c3ccc(-c4cc(C5CC5)ccc4F)cc3)C2=O)sc1S(N)(=O)=O [Compound 205]
> 7.00 | Cc1nc(N2CC(CO)CN(c3ccc(-c4cc(F)ccc4F)cc3)C2=O)sc1S(N)(=O)=O (centres unmarked) [Compound 356]
> 7.00 | Cc1nc(N2C[C@H](F)CN(c3ccc(-c4cc(F)ccc4F)cc3)C2=O)sc1S(=O)(=O)NCCO (single isomer, unassigned) [Compound 414]
> 7.00 | Cc1nc(N2CC3(COC3)CN(c3ccc(-c4cc(F)ccc4F)cc3)C2=O)sc1[S@](C)(=N)=O (single isomer, unassigned) [Compound 433]
> 7.00 | Cc1nc(N2CCCN(c3ccc(-c4cc(F)ccc4F)cc3)C2=O)sc1S(=O)(=O)NCCCCO [Compound 389]
> 7.00 | Cc1nc(N2CCCN(c3ccc(-c4cc(F)ccc4F)cc3)C2=O)sc1S(=O)(=O)NCCCF [Compound 391]
6.00 to 7.00 | Cc1nc(N2CCCN(c3ccc(-c4cc(F)ccc4SC(F)(F)F)cc3)C2=O)sc1S(N)(=O)=O [Compound 219]
> 7.00 | Cc1nc(N2CCCCN(c3ccc(-c4cc(F)ccc4F)cc3)C2=O)sc1[S@](C)(=N)=O (single isomer, unassigned) [Compound 427]
> 7.00 | Cc1nc(N2CC[C@@H](C)N(c3ccc(-c4cc(F)ccc4F)cc3)C2=O)sc1S(N)(=O)=O (single isomer, unassigned) [Compound 333]
5.30 to 6.00 | CO[C@@H]1CN(c2ccc(-c3cc(F)ccc3F)cc2)C(=O)N(c2nc(C)c(S(N)(=O)=O)s2)C1 (single isomer, unassigned) [Compound 358]
> 7.00 | Cc1nc(N2CCCN(c3ccc(-c4cc(F)ccc4F)cc3)C2=O)sc1S(=O)(=O)NCC(C)CO (centres unmarked) [Compound 394]
> 7.00 | Cc1nc(N2C[C@H](O)CN(c3ccc(-c4cc(F)ccc4F)cc3)C2=O)sc1S(N)(=O)=O (single isomer, unassigned) [Compound 354]
> 7.00 | Cc1nc(N2C[C@@H](F)CN(c3ccc(-c4cc(F)ccc4F)cc3)C2=O)sc1S(N)(=O)=O (single isomer, unassigned) [Compound 365]
> 7.00 | COc1ncc(F)cc1-c1ccc(N2CCCN(c3nc(C)c(S(N)(=O)=O)s3)C2=O)cc1 [Compound 239]
> 7.00 | Cc1nc(N2CC3(COC3)CN(c3ccc(-c4cc(F)ccc4F)cc3)C2=O)sc1[S@@](C)(=N)=O (single isomer, unassigned) [Compound 432]
> 7.00 | Cc1nc(N2CC(F)CN(c3ccc(-c4cc(F)ccc4F)cc3)C2=O)sc1S(=O)(=O)NCCO (centres unmarked) [Compound 413]
> 7.00 | COCc1c(F)cc(F)cc1-c1ccc(N2CCCN(c3nc(C)c(S(N)(=O)=O)s3)C2=O)cc1 [Compound 221]
> 7.00 | Cc1nc(N2CCCN(c3ccc(-c4cc(C#N)ccc4F)cc3)C2=O)sc1S(N)(=O)=O [Compound 202]
> 7.00 | Cc1nc(N2CCCN(c3ccc(-c4cc(F)ccc4F)cc3)C2=O)sc1S(=O)(=O)N[C@@H]1CC[C@@H](O)C1 [Compound 400]
> 7.00 | Cc1nc(N2C(=O)N(c3ccc(-c4cc(F)ccc4F)cc3)CC[C@@H]2C)sc1S(N)(=O)=O (single isomer, unassigned) [Compound 109]
6.00 to 7.00 | Cc1nc(N2CCCN(c3ccc(-c4ccc(F)c(Cl)c4)cc3)C2=O)sc1S(N)(=O)=O [Compound 186]
> 7.00 | Cc1nc(N2C[C@@H](C(F)(F)F)CN(c3ccc(-c4cc(F)ccc4F)cc3)C2=O)sc1S(N)(=O)=O (single isomer, unassigned) [Compound 371]
> 7.00 | Cc1nc(N2CC3(CCCC3)CN(c3ccc(-c4cc(F)ccc4F)cc3)C2=O)sc1S(N)(=O)=O [Compound 336]
5.30 to 6.00 | CO[C@H]1CN(c2ccc(-c3cc(F)ccc3F)cc2)C(=O)N(c2nc(C)c(S(N)(=O)=O)s2)C1 (single isomer, unassigned) [Compound 359]
> 7.00 | Cc1nc(N2C[C@H](C(C)(C)F)CN(c3ccc(-c4cc(F)ccc4F)cc3)C2=O)sc1S(N)(=O)=O (single isomer, unassigned) [Compound 352]
5.30 to 6.00 | CN=[S@@](C)(=O)c1sc(N2CCCN(c3ccc(-c4cc(F)ccc4F)cc3)C2=O)nc1C (single isomer, unassigned) [Compound 152]
6.00 to 7.00 | CN=S(C)(=O)c1sc(N2CCCN(c3ccc(-c4cc(F)ccc4F)cc3)C2=O)nc1C (centres unmarked) [Compound 151]

Same assay, conditions: Vero cells, 160 TCID50 HSV-2 G strain, 5 days, cell viability

pEC50 | Structure (SMILES)
> 7.00 | Cc1nc(N2C[C@H](C)CN(c3ccc(-c4ccccc4F)cc3)C2=O)sc1S(N)(=O)=O [Compound 324]
